# US20150197492A1, “NOVEL INDENO[1,2-c]QUINOLIN-11-ONE DERIVATIVES, PREPARATION METHOD AND APPLICATION THEREOF” (National Defense Medical Center, priority 2014, published 2015)
# Key:
# Assay in all cases: cells
# Format in all cases: cell-based
# HCT-15 = HCT-15 (Colon Cancer), 10 μM, 48 hours
# NCI-H460 = NCI-H460 (Non-Small Cell Lung Cancer), 10 μM, 48 hours
# K-562 = K-562 (Leukemia), 10 μM, 48 hours
# A549/ATCC = A549/ATCC (Non-Small Cell Lung Cancer), 10 μM, 48 hours
# RPMI-8226 = RPMI-8226 (Leukemia), 10 μM, 48 hours
# TK-10 = TK-10 (Renal Cancer), 10 μM, 48 hours
# A498 = A498 (Renal Cancer), 10 μM, 48 hours
# HL-60 (TB) = HL-60 (TB) (Leukemia), 10 μM, 48 hours
# MDA-MB-231/ATCC = MDA-MB-231/ATCC (Breast Cancer), 10 μM, 48 hours
# NCI-H23 = NCI-H23 (Non-Small Cell Lung Cancer), 10 μM, 48 hours
# MCF7 = MCF7 (Breast Cancer), 10 μM, 48 hours
# M14 = M14 (Melanoma), 10 μM, 48 hours
# HCT-116 = HCT-116 (Colon Cancer), 10 μM, 48 hours
# SF-539 = SF-539 (CNS Cancer), 10 μM, 48 hours
# NCI-H226 = NCI-H226 (Non-Small Cell Lung Cancer), 10 μM, 48 hours
# HOP-62 = HOP-62 (Non-Small Cell Lung Cancer), 10 μM, 48 hours
# SW-620 = SW-620 (Colon Cancer), 10 μM, 48 hours
# SF-268 = SF-268 (CNS Cancer), 10 μM, 48 hours
# SK-MEL-5 = SK-MEL-5 (Melanoma), 10 μM, 48 hours
# SNB-75 = SNB-75 (CNS Cancer), 10 μM, 48 hours
# SK-OV-3 = SK-OV-3 (Ovarian Cancer), 10 μM, 48 hours
# HCC-2998 = HCC-2998 (Colon Cancer), 10 μM, 48 hours
# NCI/ADR-RES = NCI/ADR-RES (Ovarian Cancer), 10 μM, 48 hours
# COLO 205 = COLO 205 (Colon Cancer), 10 μM, 48 hours
# IGROV1 = IGROV1 (Ovarian Cancer), 10 μM, 48 hours
# UO-31 = UO-31 (Renal Cancer), 10 μM, 48 hours
# RXF 393 = RXF 393 (Renal Cancer), 10 μM, 48 hours
# LOX IMVI = LOX IMVI (Melanoma), 10 μM, 48 hours
# U251 = U251 (CNS Cancer), 10 μM, 48 hours
SMILES,growth percentage (HCT-15),growth percentage (NCI-H460),growth percentage (K-562),growth percentage (A549/ATCC),growth percentage (RPMI-8226),growth percentage (TK-10),growth percentage (A498),growth percentage (HL-60 (TB)),growth percentage (MDA-MB-231/ATCC),growth percentage (NCI-H23),growth percentage (MCF7),growth percentage (M14),growth percentage (HCT-116),growth percentage (SF-539),growth percentage (NCI-H226),growth percentage (HOP-62),growth percentage (SW-620),growth percentage (SF-268),growth percentage (SK-MEL-5),growth percentage (SNB-75),also measured
"CC1CCN(c2nc3ccccc3c3c2-c2ccc(Cl)cc2C3=O)CC1 [SJ-6, 9-Chloro-6-(4-methylpiperidin-1-yl)-11H-indeno[1,2-c]quinolin-11-one]",97.78%,101.21%,103.57%,101.69%,97.99%,134.79%,87.55%,98.84%,90.96%,90.42%,64.65%,96.60%,102.51%,90.22%,94.59%,64.18%,88.89%,96.49%,98.52%,84.42%,growth percentage (SK-OV-3): 99.78%; growth percentage (HCC-2998): 102.76%; growth percentage (NCI/ADR-RES): 90.28%; growth percentage (COLO 205): 104.79%; growth percentage (IGROV1): 94.36%; growth percentage (UO-31): 76.25%; growth percentage (RXF 393): 97.51%
O=C1c2cc(Cl)ccc2-c2c(N3CCN(C(=O)N4CCCCC4)CC3)nc3ccccc3c21 [SJ-23],99.35%,98.85%,95.70%,99.12%,104.31%,131.97%,104.44%,109.78%,93.54%,95.41%,97.24%,101.18%,101.67%,92.98%,96.06%,96.39%,92.51%,107.51%,92.50%,80.84%,growth percentage (LOX IMVI): 103.19%; growth percentage (SK-OV-3): 95.59%; growth percentage (HCC-2998): 106.23%; growth percentage (NCI/ADR-RES): 107.13%; growth percentage (COLO 205): 98.52%; growth percentage (IGROV1): 81.63%; growth percentage (UO-31): 82.74%; growth percentage (U251): 98.15%; growth percentage (RXF 393): 107.22%
"O=C1c2cc(Cl)ccc2-c2c(N3CCSCC3)nc3ccccc3c21 [SJ-9, 9-Chloro-6-thiomorpholino-11H-indeno[1,2-c]quinolin-11-one]",97.88%,93.32%,100.89%,104.35%,95.20%,121.79%,99.15%,94.50%,93.08%,94.33%,49.61%,101.69%,89.08%,92.93%,94.22%,78.17%,91.88%,96.13%,89.52%,72.13%,growth percentage (LOX IMVI): 100.04%; growth percentage (SK-OV-3): 84.60%; growth percentage (HCC-2998): 103.16%; growth percentage (NCI/ADR-RES): 102.85%; growth percentage (COLO 205): 96.30%; growth percentage (IGROV1): 72.45%; growth percentage (UO-31): 65.33%; growth percentage (U251): 111.96%; growth percentage (RXF 393): 106.09%
"CNc1nc2ccccc2c2c1-c1ccc(Cl)cc1C2=O [SJ-1, 9-Chloro-6-(methylamino)-11H-indeno[1,2-c]quinolin-11-one]",66.20%,84.38%,90.99%,96.83%,91.82%,65.31%,82.03%,102.75%,83.87%,86.83%,5.24%,112.68%,88.31%,92.08%,92.19%,87.10%,96.25%,97.27%,80.96%,79.70%,growth percentage (LOX IMVI): 93.40%; growth percentage (SK-OV-3): 92.62%; growth percentage (HCC-2998): 57.51%; growth percentage (NCI/ADR-RES): 92.22%; growth percentage (COLO 205): 66.47%; growth percentage (IGROV1): 54.41%; growth percentage (UO-31): 56.91%; growth percentage (U251): 96.03%; growth percentage (RXF 393): 97.15%
